In the supplement of paper PMC11061612:

Key:
[1] = system: A375 (Melanoma); assay: Bliss excess, mean over the matrix (fraction); higher = more synergy
Summary of the method: (§1)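 Cell lines grown in DMEM/F12 or RPMI with 10% FBS were plated in 1536-well plates and held 24 hours at 37°C, 5% CO2 before 72 hours of exposure to two-drug dose matrices, with DMSO typically at 0.2%. CellTiter-Glo 2.0 luminescence gave viability, which was converted to inhibition. Vehicle wells were set to 0 and blank wells to 1. Combination Emax is the second-highest inhibition in the matrix, and Bliss excess is the observed combination effect minus the expected EA + EB − EA·EB, where EA and EB are the single-agent effects.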

[2] = system: BC-1 (B-Cell Non-Hodgkin's Lymphoma); assay: as above
Summary of the method: as §1

[3] = system: C32 (Melanoma); assay: as above
Summary of the method: as §1

[4] = system: CAL-85-1 (Breast Carcinoma); assay: as above
Summary of the method: as §1

[5] = system: COR-L105 (Lung Adenocarcinoma); assay: as above
Summary of the method: as §1

[6] = system: GCIY (Gastric Carcinoma); assay: as above
Summary of the method: as §1

[7] = system: KNS-62 (Squamous Cell Lung Carcinoma); assay: as above
Summary of the method: as §1

[8] = system: L-363 (Plasma Cell Myeloma); assay: as above
Summary of the method: as §1

[9] = system: MDA-MB-175-VII (Breast Carcinoma); assay: as above
Summary of the method: as §1

[10] = system: MG-63 (Osteosarcoma); assay: as above
Summary of the method: as §1

[11] = system: MRK-nu-1 (Breast Carcinoma); assay: as above
Summary of the method: as §1

[12] = system: NCI-H1435 (Non-Small Cell Lung Carcinoma); assay: as above
Summary of the method: as §1

[13] = system: NCI-H1648 (Lung Adenocarcinoma); assay: as above
Summary of the method: as §1

[14] = system: NCI-H2009 (Lung Adenocarcinoma); assay: as above
Summary of the method: as §1

[15] = system: NCI-H2023 (Non-Small Cell Lung Carcinoma); assay: as above
Summary of the method: as §1

[16] = system: NCI-H2452 (Mesothelioma); assay: as above
Summary of the method: as §1

[17] = system: NCI-H835 (Other Solid Carcinomas); assay: as above
Summary of the method: as §1

[18] = system: NTERA-2-cl-D1 (Other Solid Carcinomas); assay: as above
Summary of the method: as §1

[19] = system: OVKATE (Ovarian Carcinoma); assay: as above
Summary of the method: as §1

[20] = system: RPMI-8402 (T-Lymphoblastic Leukemia); assay: as above
Summary of the method: as §1

[21] = system: SBC-3 (Small Cell Lung Carcinoma); assay: as above
Summary of the method: as §1

[22] = system: SK-MEL-24 (Melanoma); assay: as above
Summary of the method: as §1

[23] = system: SW1463 (Colorectal Carcinoma); assay: as above
Summary of the method: as §1

[24] = system: A375 (Melanoma); assay: combination Emax (second highest fraction inhibited in the dose matrix, 72 h); higher = more inhibition; extreme values may be limits of the assay
Summary of the method: as §1

[25] = system: BC-1 (B-Cell Non-Hodgkin's Lymphoma); assay: as above
Summary of the method: as §1

[26] = system: C32 (Melanoma); assay: as above
Summary of the method: as §1

[27] = system: CAL-85-1 (Breast Carcinoma); assay: as above
Summary of the method: as §1

[28] = system: COR-L105 (Lung Adenocarcinoma); assay: as above
Summary of the method: as §1

[29] = system: GCIY (Gastric Carcinoma); assay: as above
Summary of the method: as §1

[30] = system: KNS-62 (Squamous Cell Lung Carcinoma); assay: as above
Summary of the method: as §1

[31] = system: L-363 (Plasma Cell Myeloma); assay: as above
Summary of the method: as §1

[32] = system: MDA-MB-175-VII (Breast Carcinoma); assay: as above
Summary of the method: as §1

[33] = system: MG-63 (Osteosarcoma); assay: as above
Summary of the method: as §1

[34] = system: MRK-nu-1 (Breast Carcinoma); assay: as above
Summary of the method: as §1

[35] = system: NCI-H1435 (Non-Small Cell Lung Carcinoma); assay: as above
Summary of the method: as §1

[36] = system: NCI-H1648 (Lung Adenocarcinoma); assay: as above
Summary of the method: as §1

[37] = system: NCI-H2009 (Lung Adenocarcinoma); assay: as above
Summary of the method: as §1

[38] = system: NCI-H2023 (Non-Small Cell Lung Carcinoma); assay: as above
Summary of the method: as §1

[39] = system: NCI-H2452 (Mesothelioma); assay: as above
Summary of the method: as §1

[40] = system: NCI-H835 (Other Solid Carcinomas); assay: as above
Summary of the method: as §1

[41] = system: NTERA-2-cl-D1 (Other Solid Carcinomas); assay: as above
Summary of the method: as §1

[42] = system: OVKATE (Ovarian Carcinoma); assay: as above
Summary of the method: as §1

[43] = system: RPMI-8402 (T-Lymphoblastic Leukemia); assay: as above
Summary of the method: as §1

[44] = system: SBC-3 (Small Cell Lung Carcinoma); assay: as above
Summary of the method: as §1

[45] = system: SK-MEL-24 (Melanoma); assay: as above
Summary of the method: as §1

[46] = system: SW1463 (Colorectal Carcinoma); assay: as above
Summary of the method: as §1
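Wherever Bliss excess, mean over the matrix is given: after 72 h of two-drug dosing.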

C=CCn1c(=O)c2cnc(Nc3ccc(N4CCN(C)CC4)cc3)nc2n1-c1cccc(C(C)(C)O)n1 [AZD1775] + CCc1c2c(nc3ccc(O)cc13)-c1cc3c(c(=O)n1C2)COC(=O)[C@]3(O)CC [SN-38] (first compound max 1 µM, partner max 0.3 µM)
Bliss excess [1]: -0.0409 | Bliss excess [2]: -0.0252 | Bliss excess [3]: -0.0375 | Bliss excess [4]: -0.0337 | Bliss excess [5]: -0.0262 | Bliss excess [6]: -0.0431 | Bliss excess [7]: -0.0374 | Bliss excess [8]: 0.0273 | Bliss excess [9]: -0.0068 | Bliss excess [10]: -0.0239 | Bliss excess [11]: 0.0275 | Bliss excess [12]: 0.0158 | Bliss excess [13]: -0.0217 | Bliss excess [14]: 0.0769 | Bliss excess [15]: -0.0478 | Bliss excess [16]: -0.0145 | Bliss excess [17]: -0.0442 | Bliss excess [18]: 0.0011 | Bliss excess [19]: -0.079 | Bliss excess [20]: 0.0012 | Bliss excess [21]: -0.0297 | Bliss excess [22]: -0.103 | Bliss excess [23]: -0.0287 | combination Emax [24]: 0.925 | combination Emax [25]: 1 | combination Emax [26]: 0.69 | combination Emax [27]: 0.799 | combination Emax [28]: 0.478 | combination Emax [29]: 0.756 | combination Emax [30]: 0.836 | combination Emax [31]: 0.903 | combination Emax [32]: 0.659 | combination Emax [33]: 0.968 | combination Emax [34]: 0.81 | combination Emax [35]: 0.547 | combination Emax [36]: 0.842 | combination Emax [37]: 0.936 | combination Emax [38]: 0.775 | combination Emax [39]: 0.675 | combination Emax [40]: 0.668 | combination Emax [41]: 0.682 | combination Emax [42]: 0.336 | combination Emax [43]: 1 | combination Emax [44]: 0.946 | combination Emax [45]: 0.806 | combination Emax [46]: 0.587

CN(CCO)CC[C@H](CSc1ccccc1)Nc1ccc(S(=O)(=O)NC(=O)c2ccc(N3CCC([C@@H](O)c4ccccc4-c4ccc(Cl)cc4)CC3)cc2)cc1S(=O)(=O)C(F)(F)F [AZD4320] + CC(=O)O[C@H]1C(=O)[C@@]2(C)[C@H]([C@H](OC(=O)c3ccccc3)[C@]3(O)C[C@H](OC(=O)[C@H](O)[C@@H](NC(=O)c4ccccc4)c4ccccc4)C(C)=C1C3(C)C)[C@]1(OC(C)=O)CO[C@@H]1C[C@@H]2O [Paclitaxel] (first compound max 1 µM, 7x7, partner max 3 µM)
Bliss excess [1]: 0.0759 | Bliss excess [2]: 0.0045 | Bliss excess [3]: 0.107 | Bliss excess [4]: 0.0773 | Bliss excess [5]: 0.0195 | Bliss excess [6]: 0.131 | Bliss excess [7]: 0.185 | Bliss excess [8]: -0.0131 | Bliss excess [9]: 0.107 | Bliss excess [10]: 0.0471 | Bliss excess [11]: 0.0162 | Bliss excess [12]: 0.167 | Bliss excess [13]: -0.0009 | Bliss excess [14]: 0.0889 | Bliss excess [15]: 0.0458 | Bliss excess [16]: 0.117 | Bliss excess [17]: 0.199 | Bliss excess [18]: 0.0025 | Bliss excess [19]: 0.113 | Bliss excess [20]: -0.0038 | Bliss excess [21]: 0.0387 | Bliss excess [22]: 0.0574 | Bliss excess [23]: 0.0662 | combination Emax [24]: 0.992 | combination Emax [25]: 1 | combination Emax [26]: 0.864 | combination Emax [27]: 0.884 | combination Emax [28]: 0.695 | combination Emax [29]: 0.952 | combination Emax [30]: 0.957 | combination Emax [31]: 1 | combination Emax [32]: 0.766 | combination Emax [33]: 1 | combination Emax [34]: 1 | combination Emax [35]: 0.929 | combination Emax [36]: 0.936 | combination Emax [37]: 0.933 | combination Emax [38]: 0.776 | combination Emax [39]: 0.983 | combination Emax [40]: 1 | combination Emax [41]: 0.754 | combination Emax [42]: 0.629 | combination Emax [43]: 1 | combination Emax [44]: 1 | combination Emax [45]: 0.888 | combination Emax [46]: 0.767

C[C@@H](Nc1cc(F)cc(F)c1)c1cc(C(=O)N(C)C)cc2c(=O)cc(N3CCOCC3)oc12 [AZD8186] + CC(=O)c1c(C)c2cnc(Nc3ccc(N4CCNCC4)cn3)nc2n(C2CCCC2)c1=O [Palbociclib] (first compound max 10 µM, 7x7, partner max 10 µM)
Bliss excess [1]: 0.0781 | Bliss excess [2]: 0.0867 | Bliss excess [3]: 0.04 | Bliss excess [4]: -0.0529 | Bliss excess [5]: 0.0059 | Bliss excess [6]: 0.0171 | Bliss excess [7]: -0.0035 | Bliss excess [8]: 0.0624 | Bliss excess [9]: -0.0148 | Bliss excess [10]: 0.0535 | Bliss excess [11]: 0.0696 | Bliss excess [12]: 0.0802 | Bliss excess [13]: 0.0672 | Bliss excess [14]: -0.0184 | Bliss excess [15]: 0.0108 | Bliss excess [16]: -0.0353 | Bliss excess [17]: 0.0763 | Bliss excess [18]: 0.0104 | Bliss excess [19]: -0.0096 | Bliss excess [20]: 0.0013 | Bliss excess [21]: 0.0742 | Bliss excess [22]: 0.0814 | Bliss excess [23]: 0.101 | combination Emax [24]: 0.42 | combination Emax [25]: 0.93 | combination Emax [26]: 0.342 | combination Emax [27]: 0.164 | combination Emax [28]: 0.392 | combination Emax [29]: 0.662 | combination Emax [30]: 0.358 | combination Emax [31]: 0.737 | combination Emax [32]: 0.456 | combination Emax [33]: 0.633 | combination Emax [34]: 0.36 | combination Emax [35]: 0.361 | combination Emax [36]: 0.579 | combination Emax [37]: 0.256 | combination Emax [38]: 0.399 | combination Emax [39]: 0.417 | combination Emax [40]: 0.802 | combination Emax [41]: 0.343 | combination Emax [42]: 0.264 | combination Emax [43]: 0.9 | combination Emax [44]: 0.709 | combination Emax [45]: 0.449 | combination Emax [46]: 0.722

O=C(c1cc(Cc2n[nH]c(=O)c3ccccc23)ccc1F)N1CCN(C(=O)C2CC2)CC1 [Olaparib] + CC1(C)CCC(CN2CCN(c3ccc(C(=O)NS(=O)(=O)c4ccc(NCC5CCOCC5)c([N+](=O)[O-])c4)c(Oc4cnc5[nH]ccc5c4)c3)CC2)=C(c2ccc(Cl)cc2)C1 [Venetoclax] (first compound max 10 µM, 7x7, partner max 1 µM)
Bliss excess [1]: -0.0248 | Bliss excess [2]: 0.0012 | Bliss excess [3]: -0.0521 | Bliss excess [4]: -0.026 | Bliss excess [5]: -0.0328 | Bliss excess [6]: -0.0547 | Bliss excess [7]: -0.0346 | Bliss excess [8]: 0.0557 | Bliss excess [9]: -0.0483 | Bliss excess [10]: 0.0113 | Bliss excess [11]: 0.0277 | Bliss excess [12]: -0.01 | Bliss excess [13]: -0.0403 | Bliss excess [14]: -0.0323 | Bliss excess [15]: -0.0292 | Bliss excess [16]: -0.0646 | Bliss excess [17]: -0.0096 | Bliss excess [18]: -0.0419 | Bliss excess [19]: -0.0355 | Bliss excess [20]: -0.0163 | Bliss excess [21]: -0.0063 | Bliss excess [22]: -0.0534 | Bliss excess [23]: -0.0111 | combination Emax [24]: 0.176 | combination Emax [25]: 0.252 | combination Emax [26]: 0.145 | combination Emax [27]: 0.239 | combination Emax [28]: 0.128 | combination Emax [29]: 0.119 | combination Emax [30]: 0.147 | combination Emax [31]: 0.305 | combination Emax [32]: 0.297 | combination Emax [33]: 0.299 | combination Emax [34]: 0.293 | combination Emax [35]: 0.117 | combination Emax [36]: 0.118 | combination Emax [37]: 0.174 | combination Emax [38]: 0.134 | combination Emax [39]: 0.143 | combination Emax [40]: 0.169 | combination Emax [41]: 0.383 | combination Emax [42]: 0.122 | combination Emax [43]: 0.53 | combination Emax [44]: 0.665 | combination Emax [45]: 0.0984 | combination Emax [46]: 0.229
